Experimental data taken from ChEMBL document CHEMBL1201862, “PubChem BioAssay data set” (2004).
Activity calls are given as the source filed them.

Key:
[1] = Luminescence-based cell-based high throughput dose response assay to identify activators of the DAF-12 from the parasite S. stercoralis (ssDAF-12).; type: functional
[2] = target: T1, Oxysterols receptor LXR-beta (Homo sapiens, UniProt P55055); experiment: LXR agonists, Gal4 luciferase reporter, dose response, counter-screen for ssDAF-12 agonist project, cell-based, luminescence, HEK293, S. stercoralis campaign (AID 720737); type: functional; conditions: read-out: IC50 (the source's name)
T1 sequence (P55055 whole entry): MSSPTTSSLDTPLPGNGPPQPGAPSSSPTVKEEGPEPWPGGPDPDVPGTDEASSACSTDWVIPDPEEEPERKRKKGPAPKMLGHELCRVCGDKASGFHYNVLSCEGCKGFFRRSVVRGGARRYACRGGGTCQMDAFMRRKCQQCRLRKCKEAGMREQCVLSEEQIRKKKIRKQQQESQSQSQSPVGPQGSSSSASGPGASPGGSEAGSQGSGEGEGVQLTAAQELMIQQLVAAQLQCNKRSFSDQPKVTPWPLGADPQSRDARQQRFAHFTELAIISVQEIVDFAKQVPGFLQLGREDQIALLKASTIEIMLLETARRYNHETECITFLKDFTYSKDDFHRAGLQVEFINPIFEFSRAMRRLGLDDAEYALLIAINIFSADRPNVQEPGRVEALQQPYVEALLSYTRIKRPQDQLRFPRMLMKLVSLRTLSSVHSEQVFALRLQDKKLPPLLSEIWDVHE

[3] = target: T1, Oxysterols receptor LXR-beta; type: functional, cell-based
[4] = target: Transthyretin (Homo sapiens, UniProt P02766); experiment: Luminescence-based cell-based high throughput dose response assay to identify activators of Transthyretin (TTR) transcription.; type: functional
[5] = luciferase reporter signal suppression in cells – H4 neuroglioma cells, luminescence, dose response (AID 1990); type: functional, cell-based
[6] = Luminescence Cell-Based Dose Response HTS to Identify Inhibitors of 5'UTR Stem-Loop Driven Prion Protein mRNA Translation in H4 Neuroglioblastoma Cells. [Related pubchem assays: 1827 (Project Summary), 1813 (Primary HTS)]; type: functional
[7] = target: T2, Heat shock factor protein 1 (Mus musculus, UniProt P38532); experiment: decrease of HSF1-responsive luciferase luminescence – cell-based, NIH3T3, dose retest, confirmation (AID 2382); type: functional;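 further: NIH3T3 fibroblasts with HSF1-driven luciferase reporter stressed by proteasome inhibitor MG132; luminescence from HSF1-driven luciferase expression after 8 hours of MG132 stress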
T2 sequence (P38532 whole entry): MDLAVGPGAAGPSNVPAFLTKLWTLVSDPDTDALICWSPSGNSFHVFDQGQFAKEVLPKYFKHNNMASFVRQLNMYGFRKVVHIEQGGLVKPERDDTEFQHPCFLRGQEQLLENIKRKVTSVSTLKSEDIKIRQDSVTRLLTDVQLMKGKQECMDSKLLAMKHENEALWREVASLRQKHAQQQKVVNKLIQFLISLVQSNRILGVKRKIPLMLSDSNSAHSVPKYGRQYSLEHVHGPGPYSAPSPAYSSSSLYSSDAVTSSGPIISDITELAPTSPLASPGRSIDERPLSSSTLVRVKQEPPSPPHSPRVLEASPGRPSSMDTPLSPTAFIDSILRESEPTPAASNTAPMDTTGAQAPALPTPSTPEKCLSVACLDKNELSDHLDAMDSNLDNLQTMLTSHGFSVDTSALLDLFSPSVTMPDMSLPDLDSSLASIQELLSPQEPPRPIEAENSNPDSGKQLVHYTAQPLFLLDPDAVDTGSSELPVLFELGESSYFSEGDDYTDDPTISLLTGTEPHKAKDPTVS

[8] = alpha-synuclein stem-loop luciferase translation blockers – H4 neuroglioma cells, luminescence, confirmation (AID 1988); type: functional, cell-based
[9] = cells; type: functional, cell-based
[10] = target: T3, Nuclear receptor subfamily 0 group B member 1 (Homo sapiens, UniProt P51843); type: functional, cell-based
T3 sequence (P51843 whole entry): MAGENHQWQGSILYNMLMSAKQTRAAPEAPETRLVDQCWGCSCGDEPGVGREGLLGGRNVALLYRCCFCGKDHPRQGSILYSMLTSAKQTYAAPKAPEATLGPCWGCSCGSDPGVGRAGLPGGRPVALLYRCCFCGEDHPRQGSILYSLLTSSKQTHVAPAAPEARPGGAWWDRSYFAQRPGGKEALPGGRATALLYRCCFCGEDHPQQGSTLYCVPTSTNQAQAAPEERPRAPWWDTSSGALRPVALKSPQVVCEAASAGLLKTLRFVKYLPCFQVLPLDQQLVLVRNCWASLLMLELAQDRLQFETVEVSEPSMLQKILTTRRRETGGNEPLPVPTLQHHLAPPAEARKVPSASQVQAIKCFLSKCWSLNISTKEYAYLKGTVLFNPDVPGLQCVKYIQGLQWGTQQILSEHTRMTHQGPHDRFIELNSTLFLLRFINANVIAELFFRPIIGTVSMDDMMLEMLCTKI

[11] = A549 cell cytotoxicity, dose response, cytotoxicity control, plate reader, cherry-pick, antagonist series (AID 743412); type: functional, cell-based
[12] = toxicity toward HepG2 liver cells – cell-based, plate reader, cherry-pick, antagonist series, cytotoxicity control, dose response (AID 743416); type: functional
[13] = blockers of bursicon-stimulated LGR2 cAMP reporter – cell-based, HEK293, CRE-luciferase reporter, cherry pick, set 2, dose response (AID 743343); type: functional;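 further: transfected cells were stimulated with diluted bursicon conditioned medium after compound addition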
[14] = blockade of melanocortin 4 receptor signaling – cell-based, plate reader, cherry pick, counter-screen for LGR2 antagonist project, dose response (AID 743444); type: functional;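 further: transfected HEK 293 cells stimulated with alpha-MSH peptide; potency of inhibitors of the alpha-MSH evoked signal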
[15] = viability loss in HEK293 cells – cell-based, plate reader, cherry-picked samples, cytotoxicity control, dose response (AID 743446); type: functional
[16] = target: T2, Heat shock factor protein 1; experiment: enhancement of HSF1-driven luciferase signal – cell-based, NIH3T3, luminescence, dose retest, confirmation (AID 435004); type: functional;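 further: stress induced by proteasome inhibitor MG132 added 30 min after compound; luciferase reporter driven by HSF1 response element in NIH3T3 cells; actives raise luminescence as potentiators of the MG132 stress response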
[17] = target: Endoplasmic reticulum aminopeptidase 1 (Homo sapiens, UniProt Q9NZ08); experiment: inhibition of human ERAP1 enzyme activity – biochemical, cherry-pick, set 2, plate reader, dose response (AID 743314)
[18] = tested on: BJ; experiment: BJ-TERT fibroblast viability loss – cell-based, RAS-independent, luminescence, dose response (AID 1933); type: functional; conditions: Homo sapiens
[19] = tested on: BJ; experiment: cells; type: functional, cell-based; conditions: Homo sapiens
[20] = Trypanosoma cruzi growth suppression in host cells – NIH3T3 host cells, beta-gal luminescence, confirmation (AID 2044); type: functional, cell-based;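 further: intracellular parasites grown in NIH/3T3 mouse fibroblasts as host cells; luminescent beta-galactosidase reporter signal from transgenic T. cruzi replicating inside host cells; inhibitors lower the luminescence signal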
[21] = NIH3T3 cell viability loss – ATP luminescence, mouse fibroblasts, counter-screen, dose response (AID 2010); type: functional, cell-based;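 further: cells exposed to compound for about 90 hours before reading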
[22] = DRD fibroblast viability loss – cell-based, non-viral oncogenic, luminescence, dose response (AID 1934); type: functional; conditions: Homo sapiens
[23] = reduced cellular PGC1a acetyl-lysine signal – cell-based, cherry-picked samples, dose response (AID 720514); type: functional;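 further: potency may reflect raised or lowered acetylation signal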
[24] = target: Genome polyprotein (dengue virus type 2, UniProt P29990); experiment: flavivirus cap methylation enzyme inhibition – biochemical, confirmation dose response, primary screen (AID 588689); type: functional
[25] = target: Caspase-6 (Homo sapiens, UniProt P55212); experiment: inhibition of CASP6 peptide cleavage – biochemical, VEID-R110 fluorescence, cherry-pick, dose response (AID 720632)
[26] = target: T4, Protein Tat (Human immunodeficiency virus type 1 group M subtype B (isolate HXB2)(HIV-1), UniProt P04608); type: functional;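 further: tat binding to TAR RNA read out by fluorescence polarization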
T4 sequence (P04608 whole entry): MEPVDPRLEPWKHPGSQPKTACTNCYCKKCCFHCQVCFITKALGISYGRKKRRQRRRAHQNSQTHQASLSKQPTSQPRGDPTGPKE

[27] = viability loss in THP-1 monocytes – THP-1 cells, cytotoxicity control for Vif-APOBEC3G degradation inhibitor project, dose response (AID 1117359); type: functional; conditions: THP-1
[28] = HIV-1 Vif–A3G interaction blockers – biochemical, TR-FRET, GST-Vif 1-94, biotin-A3G peptide, dose response retest, primary screen (AID 1117319); type: functional;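 further: TR-FRET signal of purified GST-Vif binding a biotinylated A3G peptide; inhibitors lower the FRET signal by blocking Vif and A3G binding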
[29] = target: fMet-Leu-Phe receptor (Homo sapiens, UniProt P21462); experiment: formyl peptide receptor binders – dose response (AID 519); type: functional
[30] = intracellular Trypanosoma cruzi inhibitors in host cells – cell-based, plate reader, cherry-pick samples, set 3, dose response (AID 651818); type: functional;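 further: compounds incubated with infected cells for about four days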
[31] = tested on: HeLa; experiment: viability loss in HeLa cells – cell-based, ATP luminescence, cherry-pick samples, cytotoxicity control, dose response (AID 687004); type: functional; conditions: Homo sapiens
[32] = tested on: HEK293; experiment: viability loss in HEK293T cells – cell-based, ATP luminescence, cherry-pick samples, cytotoxicity control, dose response (AID 687005); type: functional; conditions: Homo sapiens;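 further: cells exposed to compound for 48 hours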
[33] = HEK293 Cytotoxicity Assay Measured in Cell-Based System Using Plate Reader - 7071-01_Inhibitor_Dose_CherryPick_Activity_Set2.; type: functional
[34] = tested on: HEK293; experiment: cells; type: functional, cell-based; conditions: Homo sapiens
[35] = target: T3, Nuclear receptor subfamily 0 group B member 1; experiment: Luminescence-based cell-based high throughput dose response assay for inhibitors of the orphan nuclear receptor subfamily 0, group B, member 1 (DAX1; NR0B1). [Related pubchem assays (depositor defined):AID504766, AID504790]; type: functional
[36] = growth inhibition of yeast DHODH-expressing 3D7 parasites – SYBR Green, dry powder samples, dose response (AID 1159570); type: functional, cell-based;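 further: parasite growth measured after 72 hours of compound exposure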
[37] = toxicity to human HepG2 hepatoma cells – cell-based, plate reader, dry powder samples, cytotoxicity control, dose response (AID 1159569); type: functional;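 further: inhibitor potency with signal falling toward the positive control level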
[38] = P. falciparum Dd2 growth inhibitors, dose response, SYBR Green, cherry-picked samples (AID 1159567); type: functional, cell-based
[39] = Dd2 malaria parasite growth inhibition potency – SYBR Green, dry powder samples, dose response (AID 1159566); type: functional, cell-based;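 further: potency for growth inhibition with lower SYBR green DNA signal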
[40] = growth inhibition of PfATP4-mutant resistant parasites – NITD609-resistant line, SYBR Green, dry powder, dose response (AID 1159571); type: functional, cell-based;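 further: parasites synchronized at ring stage by sorbitol before testing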
[41] = toxicity to human hepatoma HepG2 cells – cell-based, cherry-picked samples, cytotoxicity control, dose response (AID 1159577); type: functional

Endoplasmic reticulum aminopeptidase 1, sequence (Q9NZ08 whole entry): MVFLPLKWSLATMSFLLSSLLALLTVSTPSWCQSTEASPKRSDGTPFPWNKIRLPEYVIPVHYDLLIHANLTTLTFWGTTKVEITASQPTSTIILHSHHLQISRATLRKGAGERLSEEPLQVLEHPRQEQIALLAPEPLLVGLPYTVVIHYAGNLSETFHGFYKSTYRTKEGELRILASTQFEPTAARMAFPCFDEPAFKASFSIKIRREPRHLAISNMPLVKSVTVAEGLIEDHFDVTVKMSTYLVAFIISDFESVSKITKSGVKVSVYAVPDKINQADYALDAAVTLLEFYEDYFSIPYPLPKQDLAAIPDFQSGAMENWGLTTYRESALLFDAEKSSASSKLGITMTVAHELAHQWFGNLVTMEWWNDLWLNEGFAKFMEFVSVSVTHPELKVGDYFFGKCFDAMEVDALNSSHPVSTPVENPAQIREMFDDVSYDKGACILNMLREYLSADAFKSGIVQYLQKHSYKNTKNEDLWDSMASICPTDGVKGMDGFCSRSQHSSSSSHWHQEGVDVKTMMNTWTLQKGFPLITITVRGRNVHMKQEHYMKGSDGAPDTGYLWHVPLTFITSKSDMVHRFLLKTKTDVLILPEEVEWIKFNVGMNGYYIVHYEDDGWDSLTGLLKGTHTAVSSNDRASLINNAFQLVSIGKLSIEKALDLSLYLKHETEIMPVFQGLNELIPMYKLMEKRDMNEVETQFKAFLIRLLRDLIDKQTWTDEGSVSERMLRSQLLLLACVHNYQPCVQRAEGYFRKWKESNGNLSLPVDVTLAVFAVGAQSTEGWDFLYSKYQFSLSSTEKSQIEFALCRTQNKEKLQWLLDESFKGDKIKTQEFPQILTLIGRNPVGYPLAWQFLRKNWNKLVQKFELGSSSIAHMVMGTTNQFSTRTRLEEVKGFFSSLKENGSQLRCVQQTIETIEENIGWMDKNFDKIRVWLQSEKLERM
fMet-Leu-Phe receptor, sequence (P21462 whole entry): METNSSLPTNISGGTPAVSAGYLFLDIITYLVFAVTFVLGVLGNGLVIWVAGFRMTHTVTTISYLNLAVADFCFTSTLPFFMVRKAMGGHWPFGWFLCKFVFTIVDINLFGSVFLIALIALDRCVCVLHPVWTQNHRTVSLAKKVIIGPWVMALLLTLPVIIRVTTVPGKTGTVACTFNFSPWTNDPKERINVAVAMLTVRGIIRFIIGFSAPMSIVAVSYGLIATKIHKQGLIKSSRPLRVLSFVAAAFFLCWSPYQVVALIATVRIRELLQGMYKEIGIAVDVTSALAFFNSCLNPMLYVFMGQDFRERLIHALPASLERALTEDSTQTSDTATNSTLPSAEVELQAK
Genome polyprotein, sequence (P29990 2492-3391 limits assumed): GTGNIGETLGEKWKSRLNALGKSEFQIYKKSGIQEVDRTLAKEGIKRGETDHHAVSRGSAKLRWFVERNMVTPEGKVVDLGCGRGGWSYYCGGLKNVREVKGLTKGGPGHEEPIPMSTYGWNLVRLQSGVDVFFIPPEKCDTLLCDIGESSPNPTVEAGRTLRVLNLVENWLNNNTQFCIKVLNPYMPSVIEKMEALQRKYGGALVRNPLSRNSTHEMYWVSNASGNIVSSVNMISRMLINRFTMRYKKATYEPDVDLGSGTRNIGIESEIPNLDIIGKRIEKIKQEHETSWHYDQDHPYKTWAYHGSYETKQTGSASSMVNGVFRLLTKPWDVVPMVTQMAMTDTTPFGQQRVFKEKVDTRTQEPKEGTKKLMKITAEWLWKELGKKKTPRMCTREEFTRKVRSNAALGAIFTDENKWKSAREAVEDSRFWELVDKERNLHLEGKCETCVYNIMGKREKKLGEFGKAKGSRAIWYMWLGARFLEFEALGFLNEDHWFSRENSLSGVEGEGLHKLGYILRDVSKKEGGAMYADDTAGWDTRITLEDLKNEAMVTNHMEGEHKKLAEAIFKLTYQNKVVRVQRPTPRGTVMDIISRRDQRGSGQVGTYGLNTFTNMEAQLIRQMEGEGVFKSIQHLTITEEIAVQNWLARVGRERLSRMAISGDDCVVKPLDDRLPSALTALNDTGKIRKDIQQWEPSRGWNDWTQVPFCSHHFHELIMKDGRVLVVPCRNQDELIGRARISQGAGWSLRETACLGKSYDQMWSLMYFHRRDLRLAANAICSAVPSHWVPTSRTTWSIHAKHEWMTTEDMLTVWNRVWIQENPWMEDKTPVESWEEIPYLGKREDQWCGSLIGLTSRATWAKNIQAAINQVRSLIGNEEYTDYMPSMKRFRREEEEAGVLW
Caspase-6, sequence (P55212 24-179 limits assumed): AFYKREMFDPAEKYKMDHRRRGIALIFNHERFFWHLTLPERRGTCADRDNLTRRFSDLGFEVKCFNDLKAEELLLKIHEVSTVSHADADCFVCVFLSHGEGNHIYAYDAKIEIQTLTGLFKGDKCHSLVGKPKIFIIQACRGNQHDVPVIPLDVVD
Caspase-6, sequence (P55212 194-293 limits assumed): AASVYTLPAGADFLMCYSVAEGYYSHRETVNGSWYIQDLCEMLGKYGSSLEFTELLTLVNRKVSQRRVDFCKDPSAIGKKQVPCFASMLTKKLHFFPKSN

Clc1ccc(-c2cn3cc(Cl)ccc3n2)cc1
IC50 [1]: > 67.6 µM (inactive) | EC50 [2]: > 67.6 µM (inactive) | EC50 [3]: > 67.6 µM (inactive)

Cn1cc(Br)c(C(=O)N2CCc3ccccc32)n1
EC50 [4]: > 167 µM (inactive)

CC(=O)c1ccc(NC(=O)c2cnn3ccccc23)cc1
EC50 [5]: 2.12 µM (active) | EC50 [6]: 1.43 µM (active) | EC50 [7]: 14.3 µM (active) | EC50 [8]: 1.68 µM (active) | IC50 [9]: > 67.5 µM (inactive) | IC50 [10]: > 67.5 µM (inactive) | AC50 [11]: 50.1 µM (active) | AC50 [12]: > 52 µM (inactive) | AC50 [13]: 9.16 µM (active) | AC50 [14]: 11.7 µM (active) | AC50 [15]: > 52 µM (inactive)

O=c1oc2cc(O)ccc2cc1S(=O)(=O)c1ccccc1
EC50 [16]: > 260 µM (inactive) | AC50 [17]: 1.44 µM (active)

CN1C(=O)C(=Cc2[nH]c3ccccc3c2CCNC(=S)NC2CC2)C(=O)N(C)C1=O
EC50 [4]: > 167 µM (inactive)

N#CC1=C(N)Oc2c(ccc3ccccc23)C1c1ccsc1 (centres undefined)
EC50 [18]: 0.182 µM (inconclusive) | EC50 [19]: 0.254 µM (active) | EC50 [20]: 2.63 µM (active) | EC50 [21]: 0.253 µM (active) | EC50 [22]: 0.221 µM (active) | AC50 [23]: 17.7 µM (active)

O=C(c1ccccc1NS(=O)(=O)c1ccc([N+](=O)[O-])cc1[N+](=O)[O-])N1O[C@@H]2C=C[C@H]1C2
IC50 [24]: 45.4 µM (active) | AC50 [25]: 9.9 µM (active) | IC50 [26]: > 100 µM (active) | CC50 [27]: 36.7 µM (active) | IC50 [28]: > 100 µM (active)

CCc1ccccc1NC(=O)C(C#N)Cc1cccnc1 (centres undefined)
Ki [29]: 31.7 µM (inactive)

C[C@H](CO)N1C[C@H](C)[C@H](CN(C)Cc2ccc(Oc3ccccc3)cc2)Oc2c(NC(=O)Nc3ccc4c(c3)OCO4)cccc2C1=O
AC50 [30]: 3.78 µM (active) | AC50 [23]: 16.9 µM (active)

C[C@@H]1CN([C@H](C)CO)S(=O)(=O)c2ccc(C#CC3CC3)cc2O[C@H]1CN(C)CC1CCOCC1
AC50 [31]: > 52 µM (inactive) | AC50 [32]: 15.4 µM (active) | AC50 [33]: 15.4 µM (active)

CO[C@@H](CN(C)Cc1cc(F)ccc1F)[C@@H](C)CN([C@H](C)CO)S(=O)(=O)c1ccc(F)cc1
AC50 [31]: > 52 µM (inactive) | AC50 [32]: 28.4 µM (active) | AC50 [33]: 28.4 µM (active)

COc1cccc(S(=O)(=O)N(C)C[C@@H]2Oc3ncccc3C(=O)N([C@H](C)CO)C[C@@H]2C)c1
AC50 [17]: 9.81 µM (active)

C/C(=N\Nc1cccc2cccnc12)c1ccccc1O
IC50 [34]: > 67.5 µM (inactive) | IC50 [35]: > 67.5 µM (inactive) | IC50 [1]: > 67.5 µM (inactive) | EC50 [2]: > 67.5 µM (inactive)

COc1ccc2c3c([nH]c2c1)[C@@H](CO)N(C(=O)CN(C)C)CC31CCN(CC2CCCCC2)CC1
AC50 [36]: 0.137 µM (active) | AC50 [37]: 23.7 µM (active) | AC50 [38]: 0.904 µM (active) | AC50 [39]: 0.361 µM (active) | AC50 [40]: 0.731 µM (active)

C/C=C/c1ccc([C@@H]2[C@@H]3CN(Cc4cccnc4)C[C@H]2N3)cc1
AC50 [36]: 1.41 µM (active) | AC50 [37]: 24.2 µM (active) | AC50 [38]: 1.41 µM (active) | AC50 [39]: 1.27 µM (active) | AC50 [41]: > 39 µM (inactive) | AC50 [40]: 1.83 µM (active)
